Laboratory results taken from patent US11780832B2, “Lactivicin compounds, their preparation and use as antibacterial agents” (priority 2021, dated 2023).
Values after ≈ are worked out from the molar mass of the structure shown. Like-named read-outs stand apart in the source and are kept apart here.

Legend:
Assay in all cases: MIC, CLSI broth microdilution
Format in all cases: cell-based
[1] = system: Citrobacter freundii species complex OXA-181
Procedure, shortened: (§1)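 Each strain carries identified resistance markers and was drawn from ATCC or clinical specimens. Susceptibility is tested per CLSI broth microdilution at a final inoculum of 5×10^5 CFU/mL, over a final compound range of 16-0.0125 μg/mL.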

[2] = system: Escherichia coli Empty pSMART plasmid
Procedure, shortened: as §1

Escherichia coli SHV-12 = conditions: SHV12
Procedure, shortened: as §1

[3] = system: Klebsiella aerogenes VIM-1, SHV-12
Procedure, shortened: as §1

[4] = system: Klebsiella pneumoniae KPC-2; conditions: KPC2
Procedure, shortened: as §1

[5] = system: Klebsiella pneumoniae KPC-3
Procedure, shortened: as §1

[6] = system: Klebsiella pneumoniae OXA-163, OXA-1_OXA-30, SHV-1, TEM-1
Procedure, shortened: (§2)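 Frozen stocks (−80 °C, skim milk) were subcultured twice. Fresh cultures were suspended in broth and added to 2-fold compound dilutions to a working inoculum of 5×10^5 CFU/mL. Final test concentrations spanned 16-0.0125 μg/mL, following the CLSI microdilution method.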

[7] = system: Klebsiella pneumoniae SHV-12
Procedure, shortened: as §1

[8] = system: Pseudomonas aeruginosa OprD negative
Procedure, shortened: as §2

[9] = system: Serratia marcescens SME-2; conditions: SME2
Procedure, shortened: as §1

[10] = system: Escherichia coli Isogenic TEM-10
Procedure, shortened: as §2

[11] = system: Escherichia coli Isogenic TEM-26
Procedure, shortened: as §2

[12] = system: Escherichia coli pSMART_Ecloacae_AmpC
Procedure, shortened: as §2

[13] = Citrobacter freundii species complex, OXA-181, read-out: MIC

Row | SMILES | MIC [1, 13] | MIC [2] | MIC (Escherichia coli SHV-12) | MIC [3] | MIC [4] | MIC ([5]; KPC3, KPC-3, read-out: MIC) | MIC [6] | MIC ([7]; SHV12, SHV-12, read-out: MIC) | MIC [8] | MIC [9] | MIC [10] | MIC [11] | MIC ([1]; Citrobacter freundii) | MIC ([5]; KPC3) | MIC ([7]; SHV12) | MIC [12]
1 | Nc1nc(/C(=N/OC2(C(=O)O)CCC(F)(F)CC2)C(=O)N[C@H]2CON(C3(C(=O)O)C[C@H](N4C(=O)c5cc(O)c(O)cc5C4=O)C(=O)O3)C2=O)cs1 (stereo partly drawn) [Cmpd 10, (4S)-2-[(4S)-4-{[(2Z)-2-(2-amino-1,3-thiazol-4-yl)-2-{[(1-carboxy-4,4-difluorocyclohexyl)oxy]imino}acetyl]amino}-3-oxo-1,2-oxazolidin-2-yl]-4-(5,6-dihydroxy-1,3-dioxo-1,3-dihydro-2H-isoindol-2-yl)-5-oxooxolane-2-carboxylic acid] | ≤ 0.015 µg/mL | ≤ 0.015 µg/mL | 2 µg/mL (≈ 2.71 µM) | 0.12 µg/mL (≈ 0.162 µM) | 0.03 µg/mL (≈ 0.0406 µM) | 0.06 µg/mL (≈ 0.0812 µM) | 0.06 µg/mL (≈ 0.0812 µM) | ≤ 0.015 µg/mL | 0.25 µg/mL (≈ 0.338 µM) | 0.06 µg/mL (≈ 0.0812 µM) | – | – | – | – | – | –
2 | CC(C)(O/N=C(\C(=O)N[C@@H]1C(=O)N2C(C(=O)[O-])=C(C[n+]3ccccc3)CS[C@H]12)c1csc(N)n1)C(=O)O [Ceftazidime, ceftazidime, reference compound] | 8 µg/mL (≈ 14.6 µM) | 0.25 µg/mL (≈ 0.457 µM) | 32 µg/mL (≈ 58.5 µM) | > 32 µg/mL | > 32 µg/mL | > 32 µg/mL | > 32 µg/mL | > 32 µg/mL | 2 µg/mL (≈ 3.66 µM) | 0.25 µg/mL (≈ 0.457 µM) | > 32 µg/mL | > 32 µg/mL | – | – | – | –
3 | Nc1nc(/C(=N/OC2(C(=O)O)CC2)C(=O)N[C@H]2CON(C3(C(=O)O)C[C@H](N4Cc5cc(O)c(O)cc5C4=O)C(=O)O3)C2=O)cs1 (stereo partly drawn) [Cmpd 28, (4S)-2-[(4S)-4-{[(2Z)-2-(2-amino-1,3-thiazol-4-yl)-2-{[(1-carboxycyclopropyl)oxy]imino}acetyl]amino}-3-oxo-1,2-oxazolidin-2-yl]-4-(5,6-dihydroxy-1-oxo-1,3-dihydro-2H-isoindol-2-yl)-5-oxooxolane-2-carboxylic acid] | 0.12 µg/mL (≈ 0.186 µM) | – | 0.5 µg/mL (≈ 0.773 µM) | 0.12 µg/mL (≈ 0.186 µM) | 0.0149 µg/mL (≈ 0.023 µM) | 0.25 µg/mL (≈ 0.387 µM) | 0.25 µg/mL (≈ 0.387 µM) | 0.06 µg/mL (≈ 0.0928 µM) | 0.5 µg/mL (≈ 0.773 µM) | 0.12 µg/mL (≈ 0.186 µM) | 0.03 µg/mL (≈ 0.0464 µM) | 0.03 µg/mL (≈ 0.0464 µM) | – | – | – | –
4 | Nc1nc(/C(=N/OC2(C(=O)O)CCOCC2)C(=O)N[C@H]2CON(C3(C(=O)O)C[C@H](N4C(=O)c5cc(O)c(O)cc5C4=O)C(=O)O3)C2=O)cs1 (stereo partly drawn) [Cmpd 8, 4-({(Z)-[1-(2-amino-1,3-thiazol-4-yl)-2-({(4S)-2-[(4S)-2-carboxy-4-(5,6-dihydroxy-1,3-dioxo-1,3-dihydro-2H-isoindol-2-yl)-5-oxooxolan-2-yl]-3-oxo-1,2-oxazolidin-4-yl}amino)-2-oxoethylidene]amino}oxy)oxane-4-carboxylic acid] | – | – | 1 µg/mL (≈ 1.42 µM) | 2 µg/mL (≈ 2.84 µM) | 0.12 µg/mL (≈ 0.17 µM) | – | 0.06 µg/mL (≈ 0.0852 µM) | – | 0.12 µg/mL (≈ 0.17 µM) | 0.06 µg/mL (≈ 0.0852 µM) | 0.0149 µg/mL (≈ 0.0211 µM) | 0.0149 µg/mL (≈ 0.0211 µM) | 0.0149 µg/mL (≈ 0.0211 µM) | 0.0149 µg/mL (≈ 0.0211 µM) | 0.0149 µg/mL (≈ 0.0211 µM) | –
5 | Nc1nc(/C(=N/OC2(C(=O)O)CC2)C(=O)N[C@H]2CON(C3(C(=O)O)C[C@H](N4C(=O)c5cc(O)c(O)cc5C4=O)C(=O)O3)C2=O)ns1 (stereo partly drawn) [Cmpd 18, (4S)-2-[(4S)-4-{[(2Z)-2-(5-amino-1,2,4-thiadiazol-3-yl)-2-{[(1-carboxycyclopropyl)oxy]imino}acetyl]amino}-3-oxo-1,2-oxazolidin-2-yl]-4-(5,6-dihydroxy-1,3-dioxo-1,3-dihydro-2H-isoindol-2-yl)-5-oxooxolane-2-carboxylic acid] | 0.06 µg/mL (≈ 0.0907 µM) | 0.0149 µg/mL (≈ 0.0225 µM) | 1 µg/mL (≈ 1.51 µM) | 0.5 µg/mL (≈ 0.756 µM) | 0.06 µg/mL (≈ 0.0907 µM) | 0.06 µg/mL (≈ 0.0907 µM) | 0.12 µg/mL (≈ 0.181 µM) | 0.03 µg/mL (≈ 0.0454 µM) | 0.12 µg/mL (≈ 0.181 µM) | 0.06 µg/mL (≈ 0.0907 µM) | – | – | – | – | – | –
6 | Nc1nc(/C(=N/OC2(C(=O)O)CC2)C(=O)N[C@H]2CON(C3(C(=O)O)C[C@H](N4C(=O)c5cc(O)c(O)cc5C4=O)C(=O)O3)C2=O)cs1 (stereo partly drawn) [Cmpd 1, (4S)-2-[(4S)-4-{[(2Z)-2-(2-amino-1,3-thiazol-4-yl)-2-{[(1-carboxycyclopropyl)oxy]imino}acetyl]amino}-3-oxo-1,2-oxazolidin-2-yl]-4-(5,6-dihydroxy-1,3-dioxo-1,3-dihydro-2H-isoindol-2-yl)-5-oxooxolane-2-carboxylic acid] | 0.03 µg/mL (≈ 0.0454 µM) | – | 0.5 µg/mL (≈ 0.757 µM) | 0.5 µg/mL (≈ 0.757 µM) | 0.12 µg/mL (≈ 0.182 µM) | – | 0.06 µg/mL (≈ 0.0908 µM) | – | 0.12 µg/mL (≈ 0.182 µM) | 0.06 µg/mL (≈ 0.0908 µM) | 0.0149 µg/mL (≈ 0.0226 µM) | 0.0149 µg/mL (≈ 0.0226 µM) | – | 0.0149 µg/mL (≈ 0.0226 µM) | 0.0149 µg/mL (≈ 0.0226 µM) | 0.03 µg/mL (≈ 0.0454 µM)
7 | Nc1nc(/C(=N/OC2(C(=O)O)CCOCC2)C(=O)N[C@H]2CON(C3(C(=O)O)C[C@H](N4C(=O)c5cc(O)c(O)nc5C4=O)C(=O)O3)C2=O)cs1 (stereo partly drawn) [Cmpd 26, 4-({(Z)-[1-(2-amino-1,3-thiazol-4-yl)-2-({(4S)-2-[(4S)-2-carboxy-4-(2,3-dihydroxy-5,7-dioxo-5,7-dihydro-6H-pyrrolo[3,4-b]pyridin-6-yl)-5-oxooxolan-2-yl]-3-oxo-1,2-oxazolidin-4-yl}amino)-2-oxoethylidene]amino}oxy)oxane-4-carboxylic acid] | 0.25 µg/mL (≈ 0.354 µM) | – | 4 µg/mL (≈ 5.67 µM) | 0.25 µg/mL (≈ 0.354 µM) | 0.0149 µg/mL (≈ 0.0211 µM) | 0.12 µg/mL (≈ 0.17 µM) | 0.12 µg/mL (≈ 0.17 µM) | 0.06 µg/mL (≈ 0.085 µM) | 2 µg/mL (≈ 2.83 µM) | 0.5 µg/mL (≈ 0.709 µM) | 0.03 µg/mL (≈ 0.0425 µM) | – | – | – | – | –
